Data set [1] concerns HepG2. Briefly: Cytotoxicity against human HepG2 cells. The data set is classed as cell-based.
Data set [2] deals with T1, Bile acid receptor (Homo sapiens) (UniProt Q96RI1).
T1 sequence (whole entry): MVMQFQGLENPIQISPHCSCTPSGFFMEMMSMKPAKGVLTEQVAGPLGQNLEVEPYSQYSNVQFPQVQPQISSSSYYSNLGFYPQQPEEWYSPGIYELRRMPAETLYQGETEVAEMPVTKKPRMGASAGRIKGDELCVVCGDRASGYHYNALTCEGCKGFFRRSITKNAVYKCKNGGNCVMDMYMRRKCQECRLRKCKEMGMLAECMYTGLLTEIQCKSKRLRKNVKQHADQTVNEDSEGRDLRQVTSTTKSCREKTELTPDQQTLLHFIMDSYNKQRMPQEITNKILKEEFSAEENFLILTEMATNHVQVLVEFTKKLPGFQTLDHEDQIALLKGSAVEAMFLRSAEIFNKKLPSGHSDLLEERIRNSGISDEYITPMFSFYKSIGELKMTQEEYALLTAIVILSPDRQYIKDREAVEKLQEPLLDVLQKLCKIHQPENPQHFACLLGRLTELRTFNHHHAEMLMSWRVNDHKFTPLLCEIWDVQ
Briefly: Agonist activity at FXR LBD expressed in human HepG2 cells co-expressing GAL4 DBD and pG5-luc assessed as transrepression of rat CYP7A1 promoter-driven luciferase activity at 100 nM after 48 hrs by transient transfection reporter assay relative to control. The data set is classed as functional, cell-based. In general terms: A reporter such as luciferase makes a cellular process visible.

Data set [3] addresses T1, Bile acid receptor (Homo sapiens). Briefly: Agonist activity at FXR LBD expressed in human HepG2 cells co-expressing GAL4 DBD and pG5-luc assessed as SHP promoter-driven luciferase activity at 1 uM after 48 hrs by transient transfection reporter assay relative to control. The data set is classed as functional, cell-based.
The target is the same in data set [4]. Briefly: Agonist activity at FXR LBD expressed in human HepG2 cells co-expressing GAL4 DBD and pG5-luc assessed as luciferase activity at 100 nM after 48 hrs by transient transfection reporter assay relative to control. The data set is classed as functional, cell-based.
Data set [5] shares this target. Briefly: Agonist activity at FXR LBD expressed in human HepG2 cells co-expressing GAL4 DBD and pG5-luc assessed as PLTP promoter-driven luciferase activity after 48 hrs by transient transfection reporter assay relative to control. The data set is classed as functional, cell-based.
Data set [6] shares this target. Briefly: Agonist activity at FXR LBD expressed in human HepG2 cells co-expressing GAL4 DBD and pG5-luc assessed as transrepression of rat CYP7A1 promoter-driven luciferase activity after 48 hrs by transient transfection reporter assay relative to control. The data set is classed as functional, cell-based.
Data set [7] has the same target. Briefly: Agonist activity at FXR LBD expressed in human HepG2 cells co-expressing GAL4 DBD and pG5-luc assessed as luciferase activity at 1 uM after 48 hrs by transient transfection reporter assay relative to control. The data set is classed as functional, cell-based.
Data set [8] has the same target. Briefly: Agonist activity at FXR LBD expressed in human HepG2 cells co-expressing GAL4 DBD and pG5-luc assessed as PLTP promoter-driven luciferase activity at 100 nM after 48 hrs by transient transfection reporter assay relative to control. The data set is classed as functional, cell-based.
Data set [9] shares this target. Briefly: Agonist activity at FXR LBD expressed in human HepG2 cells co-expressing GAL4 DBD and pG5-luc assessed as SHP promoter-driven luciferase activity at 100 nM after 48 hrs by transient transfection reporter assay relative to control. The data set is classed as functional, cell-based.

Active and inactive are the calls of the source. No cut-off for these calls is given here.

Take `C[C@H](C[C@H](O)[C@H]1OC1(C)C)C1=C2C[C@H](O)[C@H]3[C@@]4(C)CCC(=O)C(C)(C)[C@@H]4CC[C@]3(C)[C@@]2(C)CC1` [ALISOL B]: the Activity result in data set [1] is given as “Toxic”.
Consider `CC(=O)O[C@@H](C[C@@H](C)C1=C2[C@H](O)[C@H](O)[C@H]3[C@@]4(C)CCC(=O)C(C)(C)[C@@H]4CC[C@]3(C)[C@@]2(C)CC1=O)[C@H]1OC1(C)C`, for which the Activity is 85% in data set [2], “Non-toxic” in [1], “Dose-dependent effect” in [5] and “Dose-dependent effect” in [6]. Also, the Ratio is 1.6 in [3] and 2 in data set [7]. The outcome in [4], in data set [8] and in [9] was inactive.
On to `CC(=O)O[C@@H](C[C@@H](C)C1=C2C[C@H](O)[C@H]3[C@@]4(C)CCC(=O)C(C)(C)[C@@H]4CC[C@]3(C)[C@@]2(C)CC1)[C@@H](O)C(C)(C)O`, for which the outcome in data set [2], in [4], in data set [8] and in data set [9] was inactive. Moreover, the Ratio stood at 1.6 in data set [3] and 2 in data set [7]. Besides, the Activity result is “Non-toxic” in data set [1], “Dose-dependent effect” in [5] and “Dose-dependent effect” in data set [6].

The values are drawn from ChEMBL document CHEMBL2057180, “Triterpenes from Alisma orientalis act as farnesoid X receptor agonists” (Bioorg Med Chem Lett, 2012).
